These results are taken from patent US20140221301A1, “COMBINATION TREATMENT FOR CANCER” (priority 2011, published 2014).

Some results are limits rather than exact numbers.

For series [1], the system named is Cox-1, Cox-2, Cox-4 mRNA. As to the kind of experiment: Quantitative RT-PCR of Cox mRNA. It counts as cell-based, human. The note with it: TEX and primary AML cells, 2.5 μM and 5 μM. The protocol:
FIG. 4. […] (A) Cells from TEX, OCI-AML2 and two primary AML patients were treated with increasing concentrations (2.5 μM and 5 μM) of tigecycline for 36 and 48 hours of tigecycline. Total proteins were extracted and analyzed by western blotting for Cox-1, Cox-2, Cox-4, grp78, XIAP, actin and tubulin. (B) TEX and AML patient cells were treated with increasing concentrations (2.5 μM and 5 μM) of tigecycline. Cox-1, Cox-2, and Cox-4 mRNA expression relative 18S was determined by quantitative RT-PCR. Data is shown as mean±SD. (C) TEX cells were treated with increasing concentrations of tigecycline and chloramphenicol (CAP) for 72 hours. Complex I, II and IV enzyme activity relative to citrate synthase activity was determined as described in materials and methods. (D) Cells from TEX, primary AML patients, and normal donors were treated with increasing concentrations of tigecycline. Mitochondrial membrane potential (ΔΨ) was determined by staining cells with JC-1 dye, and flow cytometry analysis (Red/Green ratio). Reactive oxygen species generation (ROS) was determined by staining with h2-DCFDA and Dihydroethidium (DHE).

In series [2] the test system is OCI-AML2 human leukemia cells. It counts as in vivo, SCID mice. As for the experimental part: FIG. 3. Tigecycline has anti-leukemia activity in vivo. (A, B) Human leukemia cells (OCI-AML2) were injected subcutaneously into the flank of SCID mice. Seven days after injection, once tumors were palpable, mice were treated with tigecycline (50 mg/kg or 100 mg/kg twice daily by i.p. injection) or vehicle control (n=10 per group). Fourteen days after injection of cells, mice were sacrificed, tumors excised and the volume and mass of the tumors were measured. The tumor mass and the mean volume+SD are shown. Differences in tumor volume and mass were analyzed by an unpaired t-test: *p<0.001. (C) Tumours from two control mice, and three tigecycline-treated mice were excised after 5 days of treatment and total proteins were extracted and analyzed by western blotting for Cox-1, Cox-2, Cox-4, and tubulin. (D) Primary cells from three AML patients were injected intra-femorally into the right femur of female sub-lethally irradiated NOD/SCID mice. Three weeks after injection mice were treated with tigecycline (100 mg/kg by i.p. injection daily) or vehicle control (n=10 per group) for three weeks. Following treatment, human leukemia cell engraftment in the injected right femur was measured by FACS analysis for human CD45^+CD19^−CD33^+ cells. Data represent mean±SD of engrafted human cells. Cells from one patient experiment were used to assess secondary engraftment in a second generation of NOD/SCID mice. Equal numbers of viable leukemia cells from bone marrow of control and tigecycline treated mice were injected into irradiated NOD/SCID mice, which were not treated with tigecycline. Six weeks later, human leukemia cell engraftment in the injected right femur was measured by FACS analysis for human CD45^+CD19^−CD33^+cells. (*p<0.005, Student's t-test).
OCI-AML2 human leukemia cells (1×10^6) were injected subcutaneously into the flanks of SCID mice (Ontario Cancer Institute, Toronto, ON). Seven days after injection, once tumours were palpable, mice were treated with tigecycline twice daily (50 mg/kg or 100 mg/kg by i.p. injection) or vehicle control (n=10 per group) for 14 days. Tumor volume (tumor length x width^2×0.5236) was measured three times a week using calipers. Twenty-one days after injection of cells, mice were sacrificed, tumors excised and the volume and mass of the tumors were measured.
Given the effects of tigecycline as a potential anti-leukemia agent, tigecycline in mouse models of leukemia was evaluated. To evaluate the anti-tumor efficacy of tigecycline in vivo, human OCI-AML2 leukemia cells were injected into the flank of SCID mice. […] Tumor volume and mass were measured over time (FIG. 3A, B). […]

The test system of series [3] is primary normal hematopoietic cells (PBSC). As to the kind of experiment: Cell viability by Annexin V staining, primary normal hematopoietic cells. It counts as cell-based, human. Conditions: n=5, 48 hours. The protocol: FIG. 2. Tigecycline induces cell death and inhibits clonogenic growth in primary AML cells preferential over normal hematopoietic cells. Mononuclear cells from peripheral blood of leukemia patients (blast count>80%) and normal G-CSF expanded donors was treated with increasing concentrations of tigecycline for 48 hours. Cell viability was measured by Annexin-PI flow cytometry staining. Cell viability is expressed as a mean percentage plus or minus SD (n=3) relative to DMSO-treated cells. Mononuclear cells from primary AML patient samples (A, B) and normal peripheral blood cells (C) were plated in methylcelluose with 5 μM of Tigecycline. (D) Colony forming units were counted at 7 days (AML) and 14 days (Normal) post plating. […]
Cell growth and viability was assessed by the MTS assay (Promega, Madison, Wis.) according to the manufacturer's instructions. Apoptosis and cell death was measured by Annexin V-fluroscein isothiocyanate (FITC; Biovision Research Products, Mountain View, Calif.), propidium iodide staining and flow cytometry according to the manufacturer's instructions and as previously described^30.
Given the cytotoxicity of tigecycline towards leukemia cell lines, the ability of tigecycline to induce cell death in primary acute myeloid leukemia (AML) patient samples and normal hematopoietic cells was compared and evaluated. […]

Setting [4] is: 50 mg/kg or 100 mg/kg twice daily i.p., 14 days.

Regarding `CN(C)c1cc(NC(=O)CNC(C)(C)C)c(O)c2c1C[C@H]1C[C@H]3[C@H](N(C)C)C(O)=C(C(N)=O)C(=O)[C@@]3(O)C(O)=C1C2=O` [tigecycline], the “mRNA expression of Cox-1, Cox-2 over Cox-4” value in series [1] was “preferential increased mRNA expression”. Also, the “expression of Cox-1 and Cox-2 relative to Cox-4 in tumours” value in series [2] (50 mg/kg bid for 5 days, western blotting) is “preferential decreased expression”. Also, in series [2] (setting [4]), the “decrease of tumor mass compared to vehicle control” value is recorded as “up to 70%” and the “decrease of tumor volume compared to vehicle control” value is recorded as “up to 70%”. Also, the “toxicity in treated mice” value in series [2] (mouse, in vivo) was “No evidence of toxicity”. The LD50 in series [3] is > 10 µM.
